Assay results published in PubChem BioAssay (NCI).
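Five concentrations, 48 hours, 96-well plates. GI50 marks 50% less growth. TGI is the concentration that stops growth completely.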

How the values were obtained:
Assay in all cases: DTP human tumour cell line panel, 48 h
HL-60(TB) leukemia = tested on: HL-60(TB) leukemia
MDA-MB-435 = tested on: MDA-MB-435
IGROV1 ovarian = tested on: IGROV1 ovarian
A498 renal = tested on: A498 renal
A549 NSCLC = tested on: A549 NSCLC
COLO 205 colon = tested on: COLO 205 colon
UACC-62 melanoma = tested on: UACC-62 melanoma
RPMI-8226 leukemia = tested on: RPMI-8226 leukemia

Row | SMILES | GI50 (HL-60(TB) leukemia) [µM] | TGI (HL-60(TB) leukemia) [µM] | GI50 (MDA-MB-435) [µM] | TGI (MDA-MB-435) [µM] | GI50 (IGROV1 ovarian) [µM] | TGI (IGROV1 ovarian) [µM] | GI50 (A498 renal) [µM] | TGI (A498 renal) [µM] | GI50 (A549 NSCLC) [µM] | TGI (A549 NSCLC) [µM] | GI50 (COLO 205 colon) [µM] | TGI (COLO 205 colon) [µM] | GI50 (UACC-62 melanoma) [µM] | TGI (UACC-62 melanoma) [µM] | GI50 (RPMI-8226 leukemia) [µM] | TGI (RPMI-8226 leukemia) [µM]
1 | CC(C)(/C=C(\C#N)C(=O)N1CCC[C@@H](n2nc(-c3ccc(Oc4ccccc4)cc3F)c3c(N)ncnc32)C1)N1CCN(C2COC2)CC1 | 5.28 | 32.5 | 4.81 | 17.3 | 4.3 | 16.6 | 1.78 | 6.25 | 6.57 | 25.1 | 5.71 | 24.3 | 3.04 | 14.3 | 4.41 | 33.1
2 | Clc1cc2c(c(CSc3nc4ccccc4n4cccc34)c1)OCOC2 | > 100 | > 100 | > 100 | > 100 | 4.26 | > 100 | 22.6 | > 100 | > 100 | > 100 | > 100 | > 100 | 76.5 | > 100 | > 100 | > 100
3 | CCN1CCN(c2cc(C)c3cc(NC(=O)c4ccc(OC)c(OC)c4)ccc3n2)CC1 | 4.19 | > 44.8 | 0.448 | 5.56 | > 66.3 | > 100 | 16.4 | 41.1 | 11.1 | > 100 | 3.23 | > 37.6 | > 39.4 | > 64.8 | 2.68 | 29.4
4 | NNC(=O)CNc1cccc(Br)c1 | – | > 100 | – | > 100 | – | > 100 | – | > 100 | – | > 100 | – | > 100 | – | > 100 | – | > 100
5 | O=C(Cc1ccc(F)c(Cl)c1)Nc1cc(C2(C(F)(F)F)CC2)nn1CC1CCCCC1 | 3.27 | 7.79 | 3.85 | 11.7 | 4.64 | > 15 | 1.52 | 4.89 | 4.6 | > 15 | 2.59 | 5.41 | 3.37 | 11.5 | 3.06 | 9.43
6 | CN1CCN(c2ccc(Nc3cc(-c4cccc(-n5ccc6cc(C7CC7)cc(F)c6c5=O)c4CO)cn(C)c3=O)nc2)CC1 | 2.21 | 4.4 | 3.28 | 14 | 8.65 | 25.7 | 2.51 | 9.26 | 5.27 | 19.2 | 2.22 | 5.72 | 2.4 | 6.63 | 3.8 | 19
7 | O=C(c1ccco1)c1c(C(F)(F)F)nc2ccc(Cl)cc2[n+]1[O-] | 25.2 | 85.1 | > 100 | > 100 | > 100 | > 100 | 23.1 | 68 | > 100 | > 100 | 70.4 | > 100 | > 100 | > 100 | > 100 | > 100
